Laboratory results reported in patent US12097241B2, “Methods of treating kidney failure, and/or improving or stablizing renal function using modified relaxin polypeptides” (BRISTOL-MYERS SQUIBB COMPANY, priority 2017, dated 2024).

What follows are molecules tested against T1, human RXFP1 receptor (Homo sapiens, UniProt Q9HBX9) (assay: Intracellular cAMP accumulation assay).
T1 construct: expressed in transfected cells
T1 sequence (Q9HBX9 1-757): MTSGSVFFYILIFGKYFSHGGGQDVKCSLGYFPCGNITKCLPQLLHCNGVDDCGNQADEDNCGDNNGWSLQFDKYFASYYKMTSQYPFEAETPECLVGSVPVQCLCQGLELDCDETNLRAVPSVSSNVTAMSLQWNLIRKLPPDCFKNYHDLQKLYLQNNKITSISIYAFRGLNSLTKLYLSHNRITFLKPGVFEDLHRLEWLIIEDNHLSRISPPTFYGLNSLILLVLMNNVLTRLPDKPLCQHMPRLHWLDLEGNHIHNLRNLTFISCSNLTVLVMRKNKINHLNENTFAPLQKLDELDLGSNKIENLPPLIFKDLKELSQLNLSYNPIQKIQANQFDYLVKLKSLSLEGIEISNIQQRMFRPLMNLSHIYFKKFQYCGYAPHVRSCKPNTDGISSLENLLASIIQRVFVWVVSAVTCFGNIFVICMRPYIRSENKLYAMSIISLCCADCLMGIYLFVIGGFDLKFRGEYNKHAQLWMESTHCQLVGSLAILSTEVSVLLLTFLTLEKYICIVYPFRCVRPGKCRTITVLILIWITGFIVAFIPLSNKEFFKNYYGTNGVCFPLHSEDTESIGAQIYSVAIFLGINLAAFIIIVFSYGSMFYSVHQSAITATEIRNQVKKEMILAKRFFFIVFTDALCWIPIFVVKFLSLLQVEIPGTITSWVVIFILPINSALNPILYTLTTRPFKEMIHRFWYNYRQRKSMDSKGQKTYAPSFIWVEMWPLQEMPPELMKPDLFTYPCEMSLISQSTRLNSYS
Type: cell-based
Procedure: The intracellular cAMP accumulation assay described herein was used to assess relaxin bioactivity and potency.
CHO-K1 cells (ATCC; Cat. #CRL-9618) stably expressing the human RXFP1 receptor (locus number LOC59350) (10,000/well) were plated into 96-well plates and cultured overnight at 37° C. and 5% CO2. On the following day, the medium was removed from the wells and the cells were stimulated with the addition of ligand (relaxin polypeptide) in 50 uL buffer (1×HBSS, 5 mM HEPES (7.2), 0.5 mM IBMX, 0.1% BSA); incubation was for 10 min at 37° C. Unstimulated cells were utilized as reference controls. Reactions were terminated and cellular cAMP levels were measured using the Homogeneous Time Resolved Fluorescence (HTRF) Dynamic 2 cAMP kit (CisBio, #62AM4PEC) according to the manufacturer's protocol. Plates were analyzed using an EnVision 2104 Multilablel Reader (PerkinElmer). Signal was expressed in terms of the ratio of fluorescence intensity @ 665 nm/fluorescence intensity @620 nm×10,000. The concentration of cAMP in the sample was determined by comparison with standard curves generated from known concentrations of cAMP. The potency of each relaxin was determined using a ten-point concentration response curves which was performed in duplicate. The data were analyzed using Microsoft Excel, Version 2013 Xlfit software. Effective concentration 50 (EC50) values, the point at which the response was one-half maximal, were calculated using a four-parameter logistic equation that allowed for a variable-slope (Table 3).
Molecule `CCCCCCCCCCCCCCC(=O)N[C@@H](CCC(=O)N[C@@H](CCC(=O)O)C(=O)N[C@@H](CCC(=O)O)C(=O)N[C@@H](CCC(=O)O)C(=O)N[C@@H](CCC(=O)O)C(=O)N1CCC[C@H]1C(=O)N[C@@H](CCC(=O)O)C(=O)N[C@@H](CCC(=O)O)C(=O)N[C@@H](CCC(=O)O)C(=O)N[C@@H](CCC(=O)O)C(=O)N1CCC[C@H]1C(=O)N[C@@H](CCC(=O)O)C(=O)N[C@@H](CCC(=O)O)C(=O)N[C@@H](CCC(=O)O)C(=O)N[C@@H](CCC(=O)O)C(=O)N1CCC[C@H]1C(=O)N[C@@H](CCC(=O)O)C(=O)N[C@@H](CCC(=O)O)C(=O)N[C@@H](CCC(=O)O)C(=O)N[C@@H](CCC(=O)O)C(=O)NCCON=C(C)c1ccc(C[C@H](N)C(=O)N[C@@H](CC(C)C)C(=O)N[C@@H](Cc2ccc(O)cc2)C(=O)N[C@@H](CO)C(=O)N[C@@H](C)C(=O)N[C@@H](CC(C)C)C(=O)N[C@@H](C)C(=O)N[C@@H](CC(N)=O)C(=O)N[C@@H](CCCCN)C(=O)N[C@H]2CSSC[C@@H]3NC(=O)CNC(=O)[C@H](C(C)C)NC(=O)[C@H](Cc4c[nH]cn4)NC(=O)[C@H](CSSC[C@H](NC(=O)[C@H](CC(C)C)NC(=O)[C@H](CCCCN)NC(=O)[C@@H](NC(=O)[C@@H](NC(=O)[C@H](CCC(=O)O)NC(=O)[C@H](CCC(=O)O)NC(=O)[C@H](CCSC)NC(=O)[C@H](Cc4c[nH]c5ccccc45)NC(=O)[C@H](CO)NC(=O)[C@H](C)N)C(C)C)[C@@H](C)CC)C(=O)NCC(=O)N[C@@H](CCCNC(=N)N)C(=O)N[C@@H](CCC(=O)O)C(=O)N[C@@H](CC(C)C)C(=O)N[C@@H](C(C)C)C(=O)N[C@@H](CCCNC(=N)N)C(=O)N[C@@H](C)C(=O)N[C@@H](CCC(N)=O)C(=O)N[C@@H]([C@@H](C)CC)C(=O)N[C@@H](C)C(=O)N[C@@H]([C@@H](C)CC)C(=O)N[C@H](C(=O)NCC(=O)N[C@@H](CCSC)C(=O)N[C@@H](CO)C(=O)N[C@H](C(=O)N[C@@H](Cc4c[nH]c5ccccc45)C(=O)N[C@@H](CO)C(=O)O)[C@@H](C)O)CSSC[C@@H](C(=O)O)NC(=O)[C@H](Cc4ccccc4)NC(=O)[C@H](CCCNC(=N)N)NC(=O)[C@H](C)NC(=O)[C@H](CC(C)C)NC(=O)[C@H](CO)NC(=O)[C@H](CCCNC(=N)N)NC(=O)[C@H](CCCCN)NC(=O)[C@H]([C@@H](C)O)NC3=O)NC2=O)cc1)C(=O)O` [AQ1-EEEEPEEEEPEEEEPEEEE-Glu^γ-C14-CH3] has an EC50 of 0.33 nM.
`CCCCCCCCCCCCCCCC(=O)N[C@@H](CCC(=O)N[C@@H](CCC(=O)O)C(=O)N[C@@H](CCC(=O)O)C(=O)N[C@@H](CCC(=O)O)C(=O)N[C@@H](CCC(=O)O)C(=O)N1CCC[C@H]1C(=O)N[C@@H](CCC(=O)O)C(=O)N[C@@H](CCC(=O)O)C(=O)N[C@@H](CCC(=O)O)C(=O)N[C@@H](CCC(=O)O)C(=O)N1CCC[C@H]1C(=O)N[C@@H](CCC(=O)O)C(=O)N[C@@H](CCC(=O)O)C(=O)N[C@@H](CCC(=O)O)C(=O)N[C@@H](CCC(=O)O)C(=O)N1CCC[C@H]1C(=O)N[C@@H](CCC(=O)O)C(=O)N[C@@H](CCC(=O)O)C(=O)N[C@@H](CCC(=O)O)C(=O)N[C@@H](CCC(=O)O)C(=O)NCCON=C(C)c1ccc(C[C@H](N)C(=O)N[C@@H](CC(C)C)C(=O)N[C@@H](Cc2ccc(O)cc2)C(=O)N[C@@H](CO)C(=O)N[C@@H](C)C(=O)N[C@@H](CC(C)C)C(=O)N[C@@H](C)C(=O)N[C@@H](CC(N)=O)C(=O)N[C@@H](CCCCN)C(=O)N[C@H]2CSSC[C@@H]3NC(=O)CNC(=O)[C@H](C(C)C)NC(=O)[C@H](Cc4c[nH]cn4)NC(=O)[C@H](CSSC[C@H](NC(=O)[C@H](CC(C)C)NC(=O)[C@H](CCCCN)NC(=O)[C@@H](NC(=O)[C@@H](NC(=O)[C@H](CCC(=O)O)NC(=O)[C@H](CCC(=O)O)NC(=O)[C@H](CCSC)NC(=O)[C@H](Cc4c[nH]c5ccccc45)NC(=O)[C@H](CO)NC(=O)[C@H](C)N)C(C)C)[C@@H](C)CC)C(=O)NCC(=O)N[C@@H](CCCNC(=N)N)C(=O)N[C@@H](CCC(=O)O)C(=O)N[C@@H](CC(C)C)C(=O)N[C@@H](C(C)C)C(=O)N[C@@H](CCCNC(=N)N)C(=O)N[C@@H](C)C(=O)N[C@@H](CCC(N)=O)C(=O)N[C@@H]([C@@H](C)CC)C(=O)N[C@@H](C)C(=O)N[C@@H]([C@@H](C)CC)C(=O)N[C@H](C(=O)NCC(=O)N[C@@H](CCSC)C(=O)N[C@@H](CO)C(=O)N[C@H](C(=O)N[C@@H](Cc4c[nH]c5ccccc45)C(=O)N[C@@H](CO)C(=O)O)[C@@H](C)O)CSSC[C@@H](C(=O)O)NC(=O)[C@H](Cc4ccccc4)NC(=O)[C@H](CCCNC(=N)N)NC(=O)[C@H](C)NC(=O)[C@H](CC(C)C)NC(=O)[C@H](CO)NC(=O)[C@H](CCCNC(=N)N)NC(=O)[C@H](CCCCN)NC(=O)[C@H]([C@@H](C)O)NC3=O)NC2=O)cc1)C(=O)O` [AQ1-EEEEPEEEEPEEEEPEEEE-Glu^γ-C15-CH3] was tested, and the EC50 was 0.34 nM.
In the case of `CC[C@H](C)[C@@H]1NC(=O)[C@H](C)NC(=O)[C@H]([C@@H](C)CC)NC(=O)[C@H](CCC(N)=O)NC(=O)[C@H](C)NC(=O)[C@H](CCCNC(=N)N)NC(=O)[C@H](C(C)C)NC(=O)[C@H](CC(C)C)NC(=O)[C@H](CCC(=O)O)NC(=O)[C@H](CCCNC(=N)N)NC(=O)CNC(=O)[C@@H](NC(=O)[C@H](CC(C)C)NC(=O)[C@H](CCCCN)NC(=O)[C@@H](NC(=O)[C@@H](NC(=O)[C@H](CCC(=O)O)NC(=O)[C@H](CCC(=O)O)NC(=O)[C@H](CCSC)NC(=O)[C@H](Cc2c[nH]c3ccccc23)NC(=O)[C@H](CO)NC(=O)[C@H](C)N)C(C)C)[C@@H](C)CC)CSSC[C@@H]2NC(=O)[C@@H](NC(=O)[C@H](CCCCN)NC(=O)[C@H](CC(N)=O)NC(=O)[C@H](C)NC(=O)[C@H](CC(C)C)NC(=O)[C@H](C)NC(=O)[C@H](CO)NC(=O)[C@H](Cc3ccc(O)cc3)NC(=O)[C@H](CC(C)C)NC(=O)[C@@H](N)Cc3ccc(C(C)=NOCCNC(=O)[C@H](CCC(=O)O)NC(=O)CNC(=O)CNC(=O)CNC(=O)CNC(=O)[C@H](CO)NC(=O)[C@H](CCCCN)NC(=O)CC[C@H](NC(=O)CCCCCCCCCCCCC(=O)O)C(=O)O)cc3)CSSC[C@H](NC(=O)CNC(=O)[C@H](C(C)C)NC(=O)[C@H](Cc3c[nH]cn3)NC2=O)C(=O)N[C@@H]([C@@H](C)O)C(=O)N[C@@H](CCCCN)C(=O)N[C@@H](CCCNC(=N)N)C(=O)N[C@@H](CO)C(=O)N[C@@H](CC(C)C)C(=O)N[C@@H](C)C(=O)N[C@@H](CCCNC(=N)N)C(=O)N[C@@H](Cc2ccccc2)C(=O)N[C@H](C(=O)O)CSSC[C@@H](C(=O)NCC(=O)N[C@@H](CCSC)C(=O)N[C@@H](CO)C(=O)N[C@H](C(=O)N[C@@H](Cc2c[nH]c3ccccc23)C(=O)N[C@@H](CO)C(=O)O)[C@@H](C)O)NC1=O` [AQ1-EGGGGSK-Glu^γ-C13-COOH], the EC50 is reported as 0.31 nM.
